# Measured values published in patent publication US20180296487A1, “SUSTAINED RELEASE INJECTABLE NEUROSTEROID FORMULATIONS” (MARINUS PHARMACEUTICALS, INC., priority 2017, published 2018).
# Read-outs that look alike come from different tables or passages of the source.
# What was measured:
# [1] = cited from earlier work
structure (smiles),measurement,setting,value
"CC(=O)[C@H]1CC[C@H]2[C@@H]3CC[C@H]4C[C@H](O)CC[C@]4(C)[C@H]3CC[C@]12C [Allopregnanolone, 3α,5α-tetrahydroprogesterone]",half-life,[1]; human plasma,about 45 minutes
"CC(=O)[C@H]1CC[C@H]2[C@@H]3CC[C@H]4C[C@](C)(O)CC[C@]4(C)[C@H]3CC[C@]12C [Ganaxolone, 3α-hydroxy, 3β-methyl-5α-pregnan-20-one]",solubility in water,Solubility in water,< 1 µg/mL
same,half-life,[1]; human plasma following oral administration,approximately 20 hours
same,Tmax,[1]; therapeutic blood levels are reached quickly,short
